Source: patent US10189838B2, “Aza-oxo-indoles for the treatment and prophylaxis of respiratory syncytial virus infection” (Hoffmann-La Roche Inc., priority 2013, dated 2019)

System: RSV Long strain
Assay: Viral cytopathic effect (CPE) assay, RSV Long strain
Type: cell-based, Respiratory Syncytial Virus
Conditions: human respiratory syncytial virus, 144 h, cell viability after 6 days (Cell Counting kit-8)
Method: EC50: the concentration of a compound where 50% of its maximal protection effect against viral induced CPE is observed
LongStrain: an A subtype RSV strain obtained from ATCC with catalog number VR-26
To measure anti-RSV activity of compounds, 96-well plates are seeded with 6×10^3 cells per well in Dulbecco's modified Eagle's medium (DMEM) containing 10% fetal bovine serum (FBS). Cells are infected the next day with sufficient RSV Long strain (ATCC) to produce an approximately 80-90% cytopathic effect after 6 days, in the presence of serial half-log diluted compound in a total volume of […] per well. The viability of cells is assessed after 6 days using Cell Counting kit-8 (Dojindo Molecular Technologies). The absorbance at 450 nm and referenced at 630 nm is measured to determine 50% effective concentration (EC50)

How did the EC50 turn out when `O=C1N(Cc2cc3nc(Cl)ccc3n2CCCS(=O)(=O)C2CC2)c2cnccc2C12CC2` [Example 4-6, 1′-({5-Chloro-1-[3-(cyclopropylsulfonyl)propyl]-1H-pyrrolo[3,2-b]pyridin-2-yl}methyl)spiro[cyclopropane-1,3′-pyrrolo[2,3-c]pyridin]-2′(1′H)-one] was run?
Its EC50 is 29 nM.

With `CS(=O)(=O)CCCCn1c(CN2C(=O)C3(CC3)c3ccncc32)cc2cc(Cl)ncc21` [Example 4-7, 1′-({5-Chloro-1-[4-(methylsulfonyl)butyl]-1H-pyrrolo[2,3-c]pyridin-2-yl}methyl)spiro[cyclopropane-1,3′-pyrrolo[2,3-c]pyridin]-2′(1′H)-one] as the molecule, how does the EC50 read?
Its EC50 is 27 nM.

Which EC50 does the source give for `CN(Cc1ccccc1)S(=O)(=O)CCCn1c(CN2C(=O)C3(CC3)c3ccncc32)cc2cc(Cl)cnc21` [Example 4-8, N-Benzyl-3-{5-chloro-2-[(2′-oxospiro[cyclopropane-1,3′-pyrrolo[2,3-c]pyridin]-1′(2′H)-yl)methyl]-1H-pyrrolo[2,3-b]pyridin-1-yl}-N-methylpropane-1-sulfonamide] here?
Its EC50 is 778 nM.

How did the EC50 turn out when `O=C1N(Cc2cc3cc(Cl)ncc3n2CCCS(=O)(=O)C2CC2)c2cnccc2C12CC2` [Example 4-9, 1′-({5-Chloro-1-[3-(cyclopropylsulfonyl)propyl]-1H-pyrrolo[2,3-c]pyridin-2-yl}methyl)spiro[cyclopropane-1,3′-pyrrolo[2,3-c]pyridin]-2′(1′H)-one] was run?
The EC50 was 48.7 nM.

How did the EC50 turn out when `O=C1N(Cc2cc3cc(Cl)ncc3n2CCC2CSC2)c2cnccc2C12CC2` [Example 4-10, 1′-({5-Chloro-1[2-(thietan-3-yl)ethyl]-1H-pyrrolo[2,3-c]pyridin-2-yl}methyl)spiro[cyclopropane-1,3′-pyrrolo[2,3-c]pyridin]-2′(1′H)-one] was run?
Its EC50 is 74 nM.

Which EC50 does the source give for `O=C1N(Cc2cc3cc(Cl)ncc3n2CCC2CS(=O)(=O)C2)c2cnccc2C12CC2` [Example 4-11, 1′-({5-Chloro-1-[2-(1,1-dioxidothietan-3-yl)ethyl]-1H-pyrrolo[2,3-c]pyridin-2-yl}methyl)spiro[cyclopropane-1,3′-pyrrolo[2,3-c]pyridin]-2′(1′H)-one] here?
The EC50 was 18 nM.

With `CS(=O)(=O)CCCn1c(CN2C(=O)C3(CCC3)c3ccncc32)cc2cc(Cl)cnc21` [Example 4-12, 1′-({5-Chloro-1-[3-(methylsulfonyl)propyl]-1H-pyrrolo[2,3-b]pyridin-2-yl}methyl)spiro[cyclobutane-1,3′-pyrrolo[2,3-c]pyridin]-2′(1′H)-one] as the molecule, how does the EC50 read?
The EC50 was 56.8 nM.

`CS(=O)(=O)CCCn1c(CN2C(=O)C3(CC3)c3ccncc32)cc2cc(Cl)ncc21` [Example 4-13, 1′-({5-Chloro-1-[3-(methylsulfonyl)propyl]-1H-pyrrolo[2,3-c]pyridin-2-yl}methyl)spiro[cyclopropane-1,3′-pyrrolo[2,3-c]pyridin]-2′(1′H)-one] was tested. Which EC50 did it give?
The EC50 was 26 nM.

With `O=C1N(Cc2cc3nc(Cl)ccc3n2CCS(=O)(=O)C2CC2)c2cnccc2C12CC2` [Example 4-14, 1′-({5-Chloro-1-[2-(cyclopropylsulfonyl)ethyl]-1H-pyrrolo[3,2-b]pyridin-2-yl}methyl)spiro[cyclopropane-1,3′-pyrrolo[2,3-c]pyridin]-2′(1′H)-one] as the molecule, how does the EC50 read?
Its EC50 is 72 nM.

`CS(=O)(=O)CCCn1c(CN2C(=O)C3(CC3)c3ccncc32)cc2nc(Cl)ccc21` [Example 4-15, 1′-({5-Chloro-1-[3-(methylsulfonyl)propyl]-1H-pyrrolo[3,2-b]pyridin-2-yl}methyl)spiro[cyclopropane-1,3′-pyrrolo[2,3-c]pyridin]-2′(1′H)-one] was tested. Which EC50 did it give?
Its EC50 is 18 nM.

Which EC50 does the source give for `CS(=O)(=O)CCCCn1c(CN2C(=O)C3(CC3)c3ccncc32)cc2cc(Cl)cnc21` [Example 4-16, 1′-({5-Chloro-1-[4-(methylsulfonyl)butyl]-1H-pyrrolo[2,3-b]pyridin-2-yl}methyl)spiro[cyclopropane-1,3′-pyrrolo[2,3-c]pyridin]-2′(1′H)-one] here?
The EC50 was 54.9 nM.

`C[S+]([O-])CCCn1c(CN2C(=O)C3(CC3)c3ccncc32)cc2cc(Cl)ccc21` (stereo not shown) [Example 5-1, 1′-({5-Chloro-1-[3-(methylsulfinyl)propyl]-1H-indol-2-yl}methyl)spiro[cyclopropane-1,3′-pyrrolo[2,3-c]pyridin]-2′(1′H)-one] was tested. Which EC50 did it give?
Its EC50 is 9 nM.

Which EC50 does the source give for `CS(=O)(=O)CCn1c(CN2C(=O)C3(CC3)c3ccncc32)cc2cc(Cl)ncc21` [Example 5-2, 1′-({5-Chloro-1-[2-(methylsulfonyl)ethyl]-1H-pyrrolo[2,3-c]pyridin-2-yl}methyl)spiro[cyclopropane-1,3′-pyrrolo[2,3-c]pyridin]-2′(1′H)-one] here?
The EC50 was 269 nM.

With `CCS(=O)(=O)CCn1c(CN2C(=O)C3(CC3)c3ccncc32)cc2nc(Cl)ccc21` [Example 6, 1′-({5-Chloro-1-[2-(ethylsulfonyl)ethyl]-1H-pyrrolo[3,2-b]pyridin-2-yl}methyl)spiro[cyclopropane-1,3′-pyrrolo[2,3-c]pyridin]-2′(1′H)-one] as the molecule, how does the EC50 read?
Its EC50 is 131 nM.

Which EC50 does the source give for `CN(C)S(=O)(=O)CCCn1c(CN2C(=O)C3(CC3)c3ccncc32)cc2cc(Cl)ccc21` [Example 7-1, 3-{5-Chloro-2-[(2′-oxospiro[cyclopropane-1,3′-pyrrolo[2,3-c]pyridin]-1′(2′H)-yl)methyl]-1H-indol-1-yl}-N,N-dimethylpropane-1-sulfonamide] here?
Its EC50 is 7 nM.

For `CN(C)S(=O)(=O)CCCn1c(CN2C(=O)C3(CC3)c3ccncc32)cc2cc(Cl)cnc21` [Example 7-2, 3-{5-Chloro-2-[(2′-oxospiro[cyclopropane-1,3′-pyrrolo[2,3-c]pyridin]-1′(2′H)-yl)methyl]-1H-pyrrolo[2,3-b]pyridin-1-yl}-N,N-dimethylpropane-1-sulfonamide], which EC50 is on record?
The EC50 was 64 nM.

For `CN(C)S(=O)(=O)CCn1c(CN2C(=O)C3(CC3)c3ccncc32)cc2cc(Cl)ccc21` [Example 7-3, 2-{5-Chloro-2-[(2′-oxospiro[cyclopropane-1,3′-pyrrolo[2,3-c]pyridin]-1′(2′H)-yl)methyl]-1H-indol-1-yl}-N,N-dimethylethanesulfonamide], which EC50 is on record?
The EC50 was 23 nM.

`O=C1N(Cc2cc3cc(Cl)ccc3n2CCCS(=O)(=O)N2CCOCC2)c2cnccc2C12CC2` [Example 7-4, 1′-({5-Chloro-1-[3-(morpholin-4-ylsulfonyl)propyl]-1H-indol-2-yl}methyl)spiro[cyclopropane-1,3′-pyrrolo[2,3-c]pyridin]-2′(1′H)-one] was tested. Which EC50 did it give?
The EC50 was 14 nM.

With `O=C1N(Cc2cc3cc(Cl)ccc3n2CCCS(=O)(=O)N2CCCC2)c2cnccc2C12CC2` [Example 7-5, 1′-({5-Chloro-1-[3-(pyrrolidin-1-ylsulfonyl)propyl]-1H-indol-2-yl}methyl)spiro[cyclopropane-1,3′-pyrrolo[2,3-c]pyridin]-2′(1′H)-one] as the molecule, how does the EC50 read?
Its EC50 is 20 nM.

For `O=C1CN(S(=O)(=O)CCCn2c(CN3C(=O)C4(CC4)c4ccncc43)cc3cc(Cl)ccc32)CCN1` [Example 7-6, 1′-[(5-Chloro-1-{3-[(3-oxopiperazin-1-yl)sulfonyl]propyl}-1H-indol-2-yl)methyl]spiro[cyclopropane-1,3′-pyrrolo[2,3-c]pyridin]-2′(1′H)-one], which EC50 is on record?
Its EC50 is 7 nM.

`O=C1N(Cc2cc3cc(Cl)ccc3n2CCN2CCCS2(=O)=O)c2cnccc2C12CC2` [Example 7-7, 1′-({5-Chloro-1-[2-(1,1-dioxido-1,2-thiazolidin-2-yl)ethyl]-1H-indol-2-yl}methyl)spiro[cyclopropane-1,3′-pyrrolo[2,3-c]pyridin]-2′(1′H)-one] was tested. Which EC50 did it give?
The EC50 was 35 nM.

Which EC50 does the source give for `O=C1N(Cc2cc3cc(Cl)ccc3n2CCCCN2CCCS2(=O)=O)c2cnccc2C12CC2` [Example 7-8, 1′-({5-Chloro-1-[4-(1,1-dioxido-1,2-thiazolidin-2-yl)butyl]-1H-indol-2-yl}methyl)spiro[cyclopropane-1,3′-pyrrolo[2,3-c]pyridin]-2′(1′H)-one] here?
Its EC50 is 18 nM.

For `O=C1N(Cc2cc3cc(Cl)ccc3n2CCCN2CCS(=O)(=O)CC2)c2cnccc2C12CC2` [Example 7-9, 1′-({5-Chloro-1-[3-(1,1-dioxidothiomorpholin-4-yl)propyl]-1H-indol-2-yl}methyl)spiro[cyclopropane-1,3′-pyrrolo[2,3-c]pyridin]-2′(1′H)-one], which EC50 is on record?
Its EC50 is 797 nM.

For `O=C1N(Cc2cc3cc(Cl)ccc3n2CCCN2CCCS2(=O)=O)c2cnccc2C12CC2` [Example 7-10, 1′-({5-Chloro-1-[3-(1,1-dioxido-1,2-thiazolidin-2-yl)propyl]-1H-indol-2-yl}methyl)spiro[cyclopropane-1,3′-pyrrolo[2,3-c]pyridin]-2′(1′H)-one], which EC50 is on record?
Its EC50 is 29 nM.

How did the EC50 turn out when `O=C1N(Cc2cc3cc(Cl)ccc3n2CCCO)c2cnccc2C12CC2` [Example 8, 1′-{[5-Chloro-1-(3-hydroxypropyl)-1H-indol-2-yl]methyl}spiro[cyclopropane-1,3′-pyrrolo[2,3-c]pyridin]-2′(1′H)-one] was run?
The EC50 was 58 nM.

For `[2H]C([2H])(c1cc2cc(Cl)ccc2n1CCS(C)(=O)=O)N1C(=O)C2(CC2)c2ccncc21` [Example 9, 1′-[{5-Chloro-1-[2-(methylsulfonyl)ethyl]-1H-indol-2-yl}(^2H2)methyl]spiro[cyclopropane-1,3′-pyrrolo[2,3-c]pyridin]-2′(1′H)-one], which EC50 is on record?
The EC50 was 19 nM.

How did the EC50 turn out when `[2H]C([2H])(c1cc2cc(Cl)ccc2n1CCCS(C)(=O)=O)N1C(=O)C2(CC2)c2ccncc21` [Example 10, 1′[{-5-Chloro-1-[3-(methylsulfonyl)propyl]-1H-indol-2-yl}(^2H2)methyl]spiro[cyclopropane-1,3′-pyrrolo[2,3-c]pyridin]-2′(1′H)-one] was run?
The EC50 was 19 nM.

`CCOC(=O)CCn1c(CN2C(=O)C3(CC3)c3ccncc32)cc2cc(Cl)ccc21` [Example 11, Ethyl 3-{5-chloro-2-[(2′-oxospiro[cyclopropane-1,3′-pyrrolo[2,3-c]pyridin]-1′(2′H)-yl)methyl]-1H-indol-1-yl}propanoate] was tested. Which EC50 did it give?
Its EC50 is 19 nM.
